The numbers were not newly measured in US9907807B2, “Topical pharmaceutical compositions” (Almirall, S.A., priority 2010, dated 2018), which cites them from elsewhere.

For `C[C@@H]1C[C@H]2[C@@H]3CCC4=CC(=O)C=C[C@]4(C)[C@@]3(Cl)[C@@H](O)C[C@]2(C)[C@@]1(OC(=O)c1ccco1)C(=O)CCl` [Mometasone furoate, 9α,21-dichloro-11β,17-dihydroxy-16α-methylpregna-1,4-diene-3,20-dione 17-(2-furoate)], under “ethyl alcohol”, the “solubility in ethyl alcohol” value is “moderately soluble”. The solubility in octanol entry (octanol) is “slightly soluble”. Besides, the solubility in water result (water) was “insoluble”.
